According to publication PMC9127112, “Opening opportunities for Kd determination and screening of MHC peptide complexes” (Communications Biology, 2022):
Values joined by “and” are separate entries in the source; they are usually repeats but may differ in a detail not shown here. Equal values may be shown once.

Assays:
[1] = biological target: empty disulfide-stabilized HLA-A*02:01(Y84C/A139C) complex of heavy chain and beta-2 microglobulin (human); assay: native MS
[2] = biological target: T1, dsA2: HLA-A*02:01(Y84C/A139C) disulfide mutant heavy chain / β2m complex (Homo sapiens, UniProt P04439, D140Y/D185E/D98H/E176V/E277Q/G131W/G231S/I119V/I121R/I166T/I218V/L300P/L318F/N151K/N90K/P208A/P217A/Q86G/Q94H/R138H/R169H/T345S/A163C/Y108C); assay: nanoscale differential scanning fluorimetry (nDSF) thermal stability; type: binding; details: for Tm: dsA2 2 µM, at least two independent measurements
T1 construct: made in house; host or cells: Escherichia coli (pET3a)

[3] = biological target: T1, dsA2: HLA-A*02:01(Y84C/A139C) disulfide mutant heavy chain / β2m complex; assay: native mass spectrometry (nMS) of peptide binding to empty dsA2; details: cone 150 V, ratio 1:5, raw data, mean of >=3 measurements;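 further: native nano-electrospray MS on Q-Tof II in positive mode, dsA2 at 10 µM with peptide 50–200 µM, incubated ≥10 min on ice, argon collision gas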
[4] = biological target: empty disulfide-stabilized HLA-A*02:01(Y84C/A139C) complex of heavy chain and beta-2 microglobulin (human); assay: nanoscale differential scanning fluorimetry (nDSF, thermal stabilisation)
[5] = biological target: empty disulfide-stabilized HLA-A*02:01(Y84C/A139C) complex of heavy chain and beta-2 microglobulin (human); assay: native MS; remark: listed apart in the source
[6] = biological target: empty disulfide-stabilized HLA-A*02:01(Y84C/A139C) complex of heavy chain and beta-2 microglobulin (human); assay: nanoscale differential scanning f
[7] = biological target: empty disulfide-stabilized HLA-A*02:01(Y84C/A139C) in complex with beta-2 microglobulin (human); assay: isothermal analysis of nanoscale

NT8, NV9 without the C-terminal valine (peptide)
Kd [1]: 30 µM

YPNVNIHNF [YF9, reference compound]
Tm ([2]; peptide 0.2 µM): 36.1 °C
Tm ([2]; peptide 2 µM): 36.1 °C
Tm ([2]; peptide 20 µM): 36.2 °C
∆Tm of dsA2 by peptide binding ([2]; protein-peptide ratio 1:10 (dsA2 2 µM), relative to empty dsA2 Tm 35.7 ± 0.6 °C, citrate phosphate buffer pH 7.6, duplicates): 1 ± 1 K
AUC dsA2 (empty) ([3]; acceleration voltage 10 V): 56 ± 3% and 56%
AUC dsA2/erucamide ([3]; acceleration voltage 10 V): 39 ± 2% and 39%
AUC dsA2/pep ([3]; acceleration voltage 10 V): 4 ± 2% and 4%
AUC dsA2/pep/pep ([3]; acceleration voltage 10 V): 0%
AUC dsA2 (empty) ([3]; acceleration voltage 25 V): 51%
AUC dsA2/erucamide ([3]; acceleration voltage 25 V): 44%
AUC dsA2/pep ([3]; acceleration voltage 25 V): 5%
AUC dsA2/pep/pep ([3]; acceleration voltage 25 V): 0%
AUC dsA2 (empty) ([3]; acceleration voltage 50 V): 95%
AUC dsA2/erucamide ([3]; acceleration voltage 50 V): 2%
AUC dsA2/pep ([3]; acceleration voltage 50 V): 5%
AUC dsA2/pep/pep ([3]; acceleration voltage 50 V): 0%

Ac-NV9-NH2, NV9 with an acetylated N-terminus and an amidated C-terminus (peptide)
∆Tm [4]: 2.7 K
Kd [1]: 7 µM

LV8, NV9 without the N-terminal asparagine (peptide)
∆Tm [4]: 11.6 K
Kd [1]: 0.07 µM

B1: GV9, simplified NV9 derivative that retains the anchor residues L and V (peptide)
peptide: GLGGGGGGV
other [5]: 43%
other [6]: 6.4 K

B2: GV9 (…), simplified NV9 derivative that retains the anchor residues L and V (peptide)
peptide: GLGGGGGGV
Kd [7]: 0.36 µM
